Results from patent US20140088144A1, “INHIBITING MICROBIAL INFECTIONS” (THE UNIVERSITY OF KANSAS, priority 2012, published 2014).

Legend:
[1] = tested on: MBP-NS1-NTD; test: Fluorescence-based thermal shift assay (Sypro Orange), control protein; assay type: binding; conditions: 0 or 80 μM SE-1, 1 μM protein
Experimental: Binding of SE-1 to purified VirF was tested by comparing the VirF melting temperature (Tm) in the absence and presence of SE-1 using a thermal shift assay with the fluorescent dye Sypro Orange (Molecular Probes). This method is also known as differential scanning fluorimetry or DSF. As a control, we tested binding of SE-1 to the purified, unrelated, MBP-NS1-NTD protein (greater than 95% pure). Reactions contained (final concentrations): 1 μM protein; 20×Sypro Orange (a 250-fold dilution of the purchased 5,000× stock solution); 0.76×EMSA buffer (7.6 mM Tris-acetate, pH 7.4, 0.76 mM KEDTA, 38 mM KCl, and 0.76 mM DTT); 4% DMSO; and 0 or 80 μM SE-1. The reactions were carried out in 0.1 ml PCR low profile 8-tube strips with optically clear flat caps (USA Scientific) in a StepOnePlus™ Real-Time PCR System (Applied Biosystems), heating from 25 to 99° C. in increments of 0.8° C. The data was analyzed using the Boltzmann sigmoidal model in the software Prism (GraphPad). Data points before and after the fluorescence intensity minimum and maximum, respectively, were excluded from fitting. The ΔTm values are the average of three independent experiments with two replicates in each experiment. A single, representative, experiment is shown.

[2] = molecular target: RhaS (Escherichia coli, UniProt P09377); test: In vivo dose-response, RhaS-activated rhaB-lacZ reporter fusion (β-galactosidase); assay type: cell-based, E. coli; conditions: full-length RhaS
RhaS, sequence (P09377 whole entry, the tested form may be a part): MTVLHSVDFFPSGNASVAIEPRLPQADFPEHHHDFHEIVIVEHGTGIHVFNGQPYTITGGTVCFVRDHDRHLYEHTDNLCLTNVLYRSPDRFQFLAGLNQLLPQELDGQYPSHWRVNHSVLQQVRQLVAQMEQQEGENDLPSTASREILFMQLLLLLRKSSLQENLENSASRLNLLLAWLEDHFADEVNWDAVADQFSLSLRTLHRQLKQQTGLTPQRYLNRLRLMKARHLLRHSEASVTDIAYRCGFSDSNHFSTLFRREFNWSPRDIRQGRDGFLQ
Text: (§1) For dose-response studies, a rhaB-lacZ reporter strain was designed that allowed IPTG induction of RhaS or RhaS(163-278) expression from pHG165 (and thus rhaB-lacZ expression). The strain was constructed by introducing malP::lacIq into SME3000 via phage P1vir-mediated generalized transduction. First, SME3000 was transduced with Δcrp-3 zhc-511::Tn10 from SME1403, selecting for tetracycline resistance and screening for sorbitol deficiency (indicating Δcrp) using MacConkey sorbitol. SME3000 Acrp-3 zhc-511::Tn10 was transduced with crp^+ malP::lacI^q from SG22166, selecting for growth on minimal sorbitol and screening for maltose deficiency (indicating malP::lacI^q) using MacConkey maltose. Finally, SME3000 malP::lacI^q zhc-511::Tn10 was transduced with recA::cat from SME1048 by selecting for chloramphenicol resistance, to make strain SME3632.
The top hit identified in the screen was 1-ethyl-4-(nitromethyl)-3-quinolin-2-yl-4H-quinoline, Compound 2. The closely related compound, Compound 1,1-butyl-4-(nitromethyl)-3-quinolin-2-yl-4H-quinoline, was obtained from eMolecules, Inc. (Solana Beach, Calif.; catalog #3761-0013) or Princeton BioMolecular Research (Princeton, N.J.; catalog #OSSL—051168), with the Princeton named used here. […] Lysis/ONPG buffer (50 μL, as in Primary Screen) was added to each well and the plate was immediately placed into a PowerWave XS plate reader (BioTek Instruments, Inc., Winooski, Vt.), set to read the OD420 of each well every 15 min for 4 hr. […] Due to differences in kinetics of lacZ reporter expression, the rhaB-lacZ strains were analyzed at 4 hours and the hts-lacZ strain was analyzed at 1 hr. Percent activity was calculated for each condition as described above, using the single time point with appropriate OD420 levels for each strain. […] IC50 and maximal inhibition values were calculated using the XLfit add-in for Microsoft Excel (ID Business Solutions, Guildford, UK), and graphs were drawn using Prism (GraphPad, La Jolla, Calif.).

[3] = molecular target: T1, RhaS(163-278) (RhaS DNA-binding domain) (Escherichia coli, UniProt P09377); test: In vivo dose-response, rhaB-lacZ fusion activated by RhaS(163-278) (RhaS-DBD); assay type: cell-based, E. coli
T1 construct: expressed in transfected cells; host or cells: E. coli SME3635 (rhaB-lacZ, pHG165 expressing RhaS(163-278))
T1 sequence (P09377 163-278): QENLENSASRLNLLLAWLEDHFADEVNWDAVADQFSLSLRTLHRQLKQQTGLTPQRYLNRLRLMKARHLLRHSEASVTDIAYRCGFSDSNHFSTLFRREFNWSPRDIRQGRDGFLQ
Text: as §1, with “Finally, SME3000 malP::lacI^q zhc-511::Tn10 was transduced with recA::cat from SME1048 by selecting for chloramphenicol resistance, to make strain SME3632.” left out
The top hit identified in the screen was 1-ethyl-4-(nitromethyl)-3-quinolin-2-yl-4H-quinoline, Compound 2. […] Lysis/ONPG buffer (50 μL, as in Primary Screen) was added to each well and the plate was immediately placed into a PowerWave XS plate reader (BioTek Instruments, Inc., Winooski, Vt.), set to read the OD420 of each well every 15 min for 4 hr. […] Due to differences in kinetics of lacZ reporter expression, the rhaB-lacZ strains were analyzed at 4 hours and the hts-lacZ strain was analyzed at 1 hr. Percent activity was calculated for each condition as described above, using the single time point with appropriate OD420 levels for each strain. […]

With `CCCCN1C=C(c2ccc3ccccc3n2)C(C[N+](=O)[O-])c2ccccc21` (centres unmarked) [Compound 1, 1-butyl-4-(nitromethyl)-3-quinolin-2-yl-4H-quinoline] the “change in melting temperature of MBP-NS1-NTD” value [1] was 0.15 °C, the “inhibition of the RhaS-activated fusion” value ([2]; rhaB-lacZ) was “fully inhibit expression” and the IC50 ([2]; rhaB-lacZ (SME3634), read-out: IC50, expression of the RhaS-activated fusion) was ~30 µM. The “inhibition of RhaS(163-278)-activated expression” value ([3]; RhaS-DBD) was “fully inhibit expression” and the IC50 ([3]; RhaS-DBD (SME3635), read-out: IC50, rhaB-lacZ activation by RhaS(163-278)) was ~10 µM.
